From PMC9533837 (Antiviral Research, 2003)
Converted amounts (≈) assume the structure as drawn. Where two headings read alike, the source gives them in different places.

What was measured:
[1] = test system: VAR-GAR (1966 Brazil Garcia isolate of VAR minor); assay: organism not typed; type: cell-based, variola minor; conditions: for IC50: Vero
[2] = test system: VAC; assay: microbe, parasite or virus in culture; type: cell-based; conditions: Orthopoxvirus vaccinia, read-out: IC50 against VAC
[3] = test system: orthopoxviruses (VAR-BSH, VAR-YAM, VAR-GAR, MPX, CPX, VAC); assay: organism not typed; type: cell-based
[4] = test system: MPX Zaire (V79-1-005-Scab); assay: organism not typed; type: cell-based, monkeypox; conditions: for IC50: LLC-MK2, read-out: IC50 MPX LLC-MK2
[5] = test system: Vero cells; conditions: African green monkey
[6] = test system: VAC Copenhagen; assay: microbe, parasite or virus in culture; type: cell-based, vaccinia virus; conditions: for IC50: Orthopoxvirus vaccinia, Vero, read-out: IC50 VAC Vero
[7] = test system: CPX Brighton; assay: organism not typed; type: cell-based, cowpox; conditions: for IC50: Vero
[8] = test system: VAR-BSH (1975 Bangladesh isolate of VAR major); assay: organism not typed; type: cell-based, variola major; conditions: for IC50: LLC-MK2, read-out: IC50 VAR-BSH LLC-MK2
[9] = test system: VAR-YAM (1946 Japan Yamada isolate of VAR major); assay: organism not typed; type: cell-based, variola major; conditions: for IC50: Vero
[10] = test system: VAR-BSH (1975 Bangladesh isolate of VAR major); assay: organism not typed; type: cell-based, variola major; conditions: for IC50: Vero
[11] = test system: CPX Brighton; assay: organism not typed; type: cell-based, cowpox; conditions: for IC50: LLC-MK2, read-out: IC50 CPX LLC-MK2
[12] = test system: VAR-YAM (1946 Japan Yamada isolate of VAR major); assay: organism not typed; type: cell-based, variola major; conditions: for IC50: LLC-MK2, read-out: IC50 VAR-YAM LLC-MK2
[13] = test system: VAC Copenhagen; assay: microbe, parasite or virus in culture; type: cell-based, vaccinia virus; conditions: for IC50: Orthopoxvirus vaccinia, LLC-MK2, read-out: IC50 VAC LLC-MK2
[14] = test system: VAR-GAR (1966 Brazil Garcia isolate of VAR minor); assay: organism not typed; type: cell-based, variola minor; conditions: for IC50: LLC-MK2, read-out: IC50 VAR-GAR LLC-MK2
[15] = test system: MPX Zaire (V79-1-005-Scab); assay: organism not typed; type: cell-based, monkeypox; conditions: for IC50: Vero
[16] = test system: LLC-MK2 cells; conditions: rhesus monkey
[17] = test system: VAR isolate V68-59; assay: organism not typed; type: cell-based, variola minor; conditions: Vero, read-out: IC50, VAR isolate V68-59
[18] = test system: VAR isolate 7125; assay: organism not typed; type: cell-based, variola; conditions: Vero, read-out: IC50, VAR isolate 7125
[19] = test system: VAR isolate Heidelberg; assay: organism not typed; type: cell-based, variola; conditions: Vero, read-out: IC50, VAR isolate Heidelberg
[20] = test system: VAR isolate V73-175; assay: organism not typed; type: cell-based, variola; conditions: Vero, read-out: IC50, VAR isolate V73-175
[21] = test system: VAR isolate 7124; assay: organism not typed; type: cell-based, variola; conditions: Vero, read-out: IC50, VAR isolate 7124
[22] = test system: VAR isolate Butler; assay: organism not typed; type: cell-based, variola minor; conditions: Vero, read-out: IC50, VAR isolate Butler
[23] = test system: VAR isolate Hinden; assay: organism not typed; type: cell-based, variola; conditions: Vero, read-out: IC50, VAR isolate Hinden
[24] = test system: VAR isolate V73-225; assay: organism not typed; type: cell-based, variola; conditions: Vero, read-out: IC50, VAR isolate V73-225
[25] = test system: VAR isolate Higgins; assay: organism not typed; type: cell-based, variola; conditions: Vero, read-out: IC50, VAR isolate Higgins
[26] = test system: VAR isolate 102; assay: organism not typed; type: cell-based, variola; conditions: Vero, read-out: IC50, VAR isolate 102
[27] = test system: VAR isolate V77-1605; assay: organism not typed; type: cell-based, variola; conditions: Vero, read-out: IC50, VAR isolate V77-1605
[28] = test system: VAR isolate Rafig Lahore; assay: organism not typed; type: cell-based, variola; conditions: Vero, read-out: IC50, VAR isolate Rafig Lahore
[29] = test system: VAR isolate Minn124; assay: organism not typed; type: cell-based, variola minor; conditions: Vero, read-out: IC50, VAR isolate Minn124
[30] = test system: VAR isolate V72-119; assay: organism not typed; type: cell-based, variola; conditions: Vero, read-out: IC50, VAR isolate V72-119
[31] = test system: VAR isolate Rumbec; assay: organism not typed; type: cell-based, variola; conditions: Vero, read-out: IC50, VAR isolate Rumbec
[32] = test system: VAR isolate Eth17; assay: organism not typed; type: cell-based, variola; conditions: Vero, read-out: IC50, VAR isolate Eth17
[33] = test system: VAR isolate Somalia; assay: organism not typed; type: cell-based, variola; conditions: Vero, read-out: IC50, VAR isolate Somalia
[34] = test system: VAR isolate Shahzaman; assay: organism not typed; type: cell-based, variola; conditions: Vero, read-out: IC50, VAR isolate Shahzaman
[35] = test system: VAR isolate Horn; assay: organism not typed; type: cell-based, variola; conditions: Vero, read-out: IC50, VAR isolate Horn
[36] = test system: VAR isolate Jee; assay: organism not typed; type: cell-based, variola; conditions: Vero, read-out: IC50, VAR isolate Jee
[37] = test system: VAR isolate Iran 2602; assay: organism not typed; type: cell-based, variola; conditions: Vero, read-out: IC50, VAR isolate Iran 2602
[38] = test system: VAR isolate V74-227; assay: organism not typed; type: cell-based, variola; conditions: Vero, read-out: IC50, VAR isolate V74-227
[39] = test system: VAR isolate V70-46; assay: organism not typed; type: cell-based, variola; conditions: Vero, read-out: IC50, VAR isolate V70-46
[40] = test system: VAR isolate V70-222; assay: organism not typed; type: cell-based, variola; conditions: Vero, read-out: IC50, VAR isolate V70-222
[41] = test system: all VAR isolates tested; assay: organism not typed; type: cell-based, variola; conditions: Vero, read-out: IC50, VAR mean
[42] = test system: VAR isolate K1629; assay: organism not typed; type: cell-based, variola; conditions: Vero, read-out: IC50, VAR isolate K1629

CC(C)(C)C(=O)OCOP(=O)(COCCn1cnc2c(N)ncnc21)OCOC(=O)C(C)(C)C [bis-POM-PMEA, 9-[2-[[bis[(pivaloyloxy)-methoxy]phosphinyl]methoxy]ethyl]adenine]
Therapeutic index (TI) VAR-GAR Vero [1]: 1.1
IC50 ([1]; read-out: IC50 VAR-GAR Vero): 90 µg/mL (≈ 179 µM)
IC50 [2]: 55.1 µg/mL (≈ 110 µM)
inhibitory activity against the orthopoxviruses tested (in words) [3]: Neither PMEA nor bis-POM-PMEA was effective
Therapeutic index (TI) MPX LLC-MK2 [4]: 1.0
IC50 [4]: > 100 µg/mL
Cytotoxicity TC50 Vero [5]: >100 µg/mL
Therapeutic index (TI) VAC Vero [6]: 2.3
IC50 [6]: 44 µg/mL (≈ 87.7 µM)
Therapeutic index (TI) CPX Vero [7]: 1.3
IC50 ([7]; read-out: IC50 CPX Vero): 75.5 µg/mL (≈ 151 µM)
Therapeutic index (TI) VAR-BSH LLC-MK2 [8]: 1.0
IC50 [8]: > 100 µg/mL
Therapeutic index (TI) VAR-YAM Vero [9]: 1.0
IC50 ([9]; read-out: IC50 VAR-YAM Vero): > 100 µg/mL
Therapeutic index (TI) VAR-BSH Vero [10]: 1.2
IC50 ([10]; read-out: IC50 VAR-BSH Vero): 84.2 µg/mL (≈ 168 µM)
Therapeutic index (TI) CPX LLC-MK2 [11]: 1.2
IC50 [11]: 86 µg/mL (≈ 171 µM)
Therapeutic index (TI) VAR-YAM LLC-MK2 [12]: 1.0
IC50 [12]: > 100 µg/mL
Therapeutic index (TI) VAC LLC-MK2 [13]: 1.5
IC50 [13]: 66.2 µg/mL (≈ 132 µM)
Therapeutic index (TI) VAR-GAR LLC-MK2 [14]: 1.2
IC50 [14]: 85 µg/mL (≈ 169 µM)
Therapeutic index (TI) MPX Vero [15]: 1.0
IC50 ([15]; read-out: IC50 MPX Vero): > 100 µg/mL
Cytotoxicity TC50 LLC-MK2 [16]: >100 µg/mL

Nc1ccn(C[C@H]2COP(=O)(O)CO2)c(=O)n1 [cHPMPC, 1-[(S)-2-hydroxy-2-oxo-1-[4,2-dioxaphosphorinan-5-yl]methyl]cytosine]
IC50 [17]: 20 µg/mL (≈ 76.6 µM)
IC50 [18]: 24 µg/mL (≈ 91.9 µM)
Therapeutic index (TI) VAR-GAR Vero [1]: 10.1
IC50 ([1]; read-out: IC50, VAR isolate Garcia): 4 µg/mL (≈ 15.3 µM)
IC50 ([1]; read-out: IC50 VAR-GAR Vero): 7.9 µg/mL (≈ 30.2 µM)
IC50 ([3]; read-out: mean IC50 against the panel of viruses): 21.6 ± 7.6 µg/mL (≈ 82.7 µM)
IC50 [19]: 14 µg/mL (≈ 53.6 µM)
IC50 [20]: 16 µg/mL (≈ 61.3 µM)
IC50 [21]: 26 µg/mL (≈ 99.6 µM)
IC50 [22]: 6 µg/mL (≈ 23 µM)
Therapeutic index (TI) MPX LLC-MK2 [4]: 29.4
IC50 [4]: 3.4 µg/mL (≈ 13 µM)
IC50 [23]: 19 µg/mL (≈ 72.7 µM)
Cytotoxicity TC50 Vero [5]: 80.0 µg/mL
Therapeutic index (TI) VAC Vero [6]: 4.4
IC50 [6]: 18.1 µg/mL (≈ 69.3 µM)
IC50 [24]: 9 µg/mL (≈ 34.5 µM)
IC50 [25]: 17 µg/mL (≈ 65.1 µM)
IC50 [26]: 38 µg/mL (≈ 145 µM)
IC50 [27]: 22 µg/mL (≈ 84.2 µM)
IC50 [28]: 18 µg/mL (≈ 68.9 µM)
IC50 [29]: 9 µg/mL (≈ 34.5 µM)
IC50 [30]: 18 µg/mL (≈ 68.9 µM)
Therapeutic index (TI) CPX Vero [7]: 3.0
IC50 ([7]; read-out: IC50, CPX): 52 µg/mL (≈ 199 µM)
IC50 ([7]; read-out: IC50 CPX Vero): 26.9 µg/mL (≈ 103 µM)
Therapeutic index (TI) VAR-BSH LLC-MK2 [8]: 4.9
IC50 [8]: 20.3 µg/mL (≈ 77.7 µM)
IC50 [31]: 16 µg/mL (≈ 61.3 µM)
IC50 [32]: 17 µg/mL (≈ 65.1 µM)
Therapeutic index (TI) VAR-YAM Vero [9]: 2.8
IC50 ([9]; read-out: IC50, VAR isolate Yamada): 31 µg/mL (≈ 119 µM)
IC50 ([9]; read-out: IC50 VAR-YAM Vero): 28.2 µg/mL (≈ 108 µM)
IC50 [33]: 8 µg/mL (≈ 30.6 µM)
IC50 [34]: 14 µg/mL (≈ 53.6 µM)
IC50 [35]: 12 µg/mL (≈ 45.9 µM)
Therapeutic index (TI) VAR-BSH Vero [10]: 3.2
IC50 ([10]; read-out: IC50, VAR isolate Bangladesh): 17 µg/mL (≈ 65.1 µM)
IC50 ([10]; read-out: IC50 VAR-BSH Vero): 25.3 µg/mL (≈ 96.9 µM)
Therapeutic index (TI) CPX LLC-MK2 [11]: 1.0
IC50 [11]: > 100 µg/mL
IC50 [36]: 7 µg/mL (≈ 26.8 µM)
Therapeutic index (TI) VAR-YAM LLC-MK2 [12]: 16.4
IC50 [12]: 6.1 µg/mL (≈ 23.4 µM)
IC50 [37]: 7 µg/mL (≈ 26.8 µM)
Therapeutic index (TI) VAC LLC-MK2 [13]: 22.7
IC50 [13]: 4.4 µg/mL (≈ 16.8 µM)
Therapeutic index (TI) VAR-GAR LLC-MK2 [14]: 16.9
IC50 [14]: 5.9 µg/mL (≈ 22.6 µM)
IC50 [38]: 9 µg/mL (≈ 34.5 µM)
IC50 [39]: 13 µg/mL (≈ 49.8 µM)
IC50 [40]: 23 µg/mL (≈ 88.1 µM)
IC50 [41]: 17 ± 2 µg/mL (≈ 65.1 µM)
Therapeutic index (TI) MPX Vero [15]: 6.5
IC50 ([15]; read-out: IC50, MPX): 21 µg/mL (≈ 80.4 µM)
IC50 ([15]; read-out: IC50 MPX Vero): 12.3 µg/mL (≈ 47.1 µM)
Cytotoxicity TC50 LLC-MK2 [16]: >100 µg/mL
IC50 [42]: 25 µg/mL (≈ 95.7 µM)
